This note sets out measurements from patent US9914731B2, “Pyrazolo[1,5-a]pyridine derivatives and methods of their use” (Ignyta, Inc., priority 2013, dated 2018).

For test [1], the target named is recombinant human baculovirus-expressed AXL (Homo sapiens (Human), UniProt P30530). Kind of test: AXL kinase assay (HTRF KinEASE). The note with it: average of two or more determinations. Type of test: biochemical. On the technique in general: TR-FRET usually uses a lanthanide donor and a delayed reading to cut background.
For test [2], the target named is recombinant human baculovirus-expressed cMET (Homo sapiens (Human), UniProt P08581). The test can be described thus: c-MET kinase assay (HTRF KinEASE). Type of test: biochemical. Particulars: average of two or more determinations; read-out: c-MET IC50.

Molecules are shown by their SMILES.

The term IC50 denotes the concentration at which inhibition is half-maximal. For `O=C(Nc1ccc(Oc2cc(-c3ccncc3)cn3nccc23)c(F)c1)c1cccn(-c2ccc(F)cc2)c1=O` [Example 27, 1-(4-Fluoro-phenyl)-2-oxo-1,2-dihydro-pyridine-3-carboxylic acid [3-fluoro-4-(6-pyridin-4-yl-pyrazolo[1,5-a]pyridin-4-yloxy)-phenyl]-amide], the IC50 in test [1] and in test [2] was < 10 nM throughout.

Regarding `Cn1cc(-c2cc(Oc3ccc(NC(=O)c4cccn(-c5ccc(F)cc5)c4=O)cc3F)c3ccnn3c2)cn1` [Example 29, 1-(4-Fluoro-phenyl)-2-oxo-1,2-dihydro-pyridine-3-carboxylic acid {3-fluoro-4-[6-(1-methyl-1H-pyrazol-4-yl)-pyrazolo[1,5-a]pyridin-4-yloxy]-phenyl}-amide], the IC50 in test [1] and in test [2] was < 10 nM throughout.

As to `Cn1cc(-c2cc(Oc3ccc(NC(=O)c4c[nH]c(=O)n(-c5ccc(F)cc5)c4=O)cc3F)c3ccnn3c2)cn1` [Example 30, 3-(4-Fluoro-phenyl)-2,4-dioxo-1,2,3,4-tetrahydro-pyrimidine-5-carboxylic acid {3-fluoro-4-[6-(1-methyl-1H-pyrazol-4-yl)-pyrazolo[1,5-a]pyridin-4-yloxy]-phenyl}-amide], the IC50 in test [1] and in test [2] was < 10 nM throughout.

Take `CCOCCn1cc(C(=O)Nc2ccc(Oc3cc(-c4cnn(C)c4)cn4nccc34)c(F)c2)c(=O)n(-c2ccc(F)cc2)c1=O` [Example 31, 1-(2-Ethoxy-ethyl)-3-(4-fluoro-phenyl)-2,4-dioxo-1,2,3,4-tetrahydro-pyrimidine-5-carboxylic acid {3-fluoro-4-[6-(1-methyl-1H-pyrazol-4-yl)-pyrazolo[1,5-a]pyridin-4-yloxy]-phenyl}-amide]: the IC50 in test [1] and in test [2] was < 10 nM in each case.

Take `CCn1cc(C(=O)Nc2ccc(Oc3cc(-c4cnn(C)c4)cn4nccc34)c(F)c2)c(=O)n(-c2ccc(F)cc2)c1=O` [Example 33, 1-Ethyl-3-(4-fluoro-phenyl)-2,4-dioxo-1,2,3,4-tetrahydro-pyrimidine-5-carboxylic acid {3-fluoro-4-[6-(1-methyl-1H-pyrazol-4-yl)-pyrazolo[1,5-a]pyridin-4-yloxy]-phenyl}-amide]: the IC50 in test [1] and in test [2] was < 10 nM each time.

Turning to `Cc1ccc(C(=O)Nc2ccc(Oc3cc(-c4cnn(C)c4)cn4nccc34)c(F)c2)c(=O)n1-c1ccc(F)cc1` [Example 34, 1-(4-Fluoro-phenyl)-6-methyl-2-oxo-1,2-dihydro-pyridine-3-carboxylic acid {3-fluoro-4-[6-(1-methyl-1H-pyrazol-4-yl)-pyrazolo[1,5-a]pyridin-4-yloxy]-phenyl}-amide], the IC50 in test [1] and in test [2] was < 10 nM throughout.

As for `Cc1c(-c2cc(Oc3ccc(NC(=O)c4cccn(-c5ccc(F)cc5)c4=O)cc3F)c3ccnn3c2)cnn1C` [Example 39, 1-(4-Fluoro-phenyl)-2-oxo-1,2-dihydro-pyridine-3-carboxylic acid {4-[6-(1,5-dimethyl-1H-pyrazol-4-yl)-pyrazolo[1,5-a]pyridin-4-yloxy]-3-fluoro-phenyl}-amide], the IC50 in test [1] and in test [2] was < 10 nM in each case.

On to `O=C(Nc1ccc(Oc2cc(-c3cn[nH]c3)cn3nccc23)c(F)c1)c1cccn(-c2ccc(F)cc2)c1=O` [Example 42, 1-(4-Fluoro-phenyl)-2-oxo-1,2-dihydro-pyridine-3-carboxylic acid {3-fluoro-4-[6-(1H-pyrazol-4-yl)-pyrazolo[1,5-a]pyridine-4-yloxy]-phenyl}-amide], for which the IC50 in test [1] and in test [2] was < 10 nM each time.

For `Cc1[nH]ncc1-c1cc(Oc2ccc(NC(=O)c3cccn(-c4ccc(F)cc4)c3=O)cc2F)c2ccnn2c1` [Example 44, 1-(4-Fluoro-phenyl)-2-oxo-1,2-dihydro-pyridine-3-carboxylic acid{3-fluoro-4-[6-(5-methyl-1H-pyrazol-4-yl)-pyrazolo[1,5-a]pyridin-4-yloxy]-phenyl}-amide], the IC50 in test [1] and in test [2] was < 10 nM in each case.

As to `Cc1ccc(C(=O)Nc2ccc(Oc3cc(-c4cnco4)cn4nccc34)c(F)c2)c(=O)n1-c1ccc(F)cc1` [Example 51, 1-(4-Fluoro-phenyl)-6-methyl-2-oxo-1,2-dihydro-pyridine-3-carboxylic acid [3-fluoro-4-(6-oxazol-5-yl-pyrazolo[1,5-a]pyridin-4-yloxy)-phenyl]-amide], the IC50 in test [1] and in test [2] was < 10 nM throughout.

As to `CCn1cc(C(=O)Nc2ccc(Oc3cc(-c4cnsc4)cn4nccc34)c(F)c2)c(=O)n(-c2ccc(F)cc2)c1=O` [Example 54, 1-Ethyl-3-(4-fluoro-phenyl)-2,4-dioxo-1,2,3,4-tetrahydro-pyrimidine-5-carboxylic acid[3-fluoro-4-(6-isothiazol-4-yl-pyrazolo[1,5-a]pyridin-4-yloxy)-phenyl]-amide], the IC50 in test [1] and in test [2] was < 10 nM in each case.

With `CC(C)n1cc(C(=O)Nc2ccc(Oc3cc(-c4cnsc4)cn4nccc34)c(F)c2)c(=O)n(-c2ccc(F)cc2)c1=O` [Example 55, 3-(4-Fluoro-phenyl)-1-isopropyl-2,4-dioxo-1,2,3,4-tetrahydro-pyrimidine-5-carboxylic acid[3-fluoro-4-(6-isothiazol-4-yl-pyrazolo[1,5-a]pyridin-4-yloxy)-phenyl]-amide], the IC50 in test [1] and in test [2] was < 10 nM each time.

With `O=C(Nc1ccc(Oc2cc(N3CCOCC3)cn3nccc23)c(F)c1)c1cccn(-c2ccc(F)cc2)c1=O` [Example 56, 1-(4-Fluoro-phenyl)-2-oxo-1,2-dihydro-pyridine-3-carboxylic acid[3-fluoro-4-(6-morpholin-4-yl-pyrazolo[1,5-a]pyridin-4-yloxy)-phenyl]-amide], the IC50 in test [1] and in test [2] was < 10 nM throughout.

In the case of `Cc1ccc(C(=O)Nc2ccc(Oc3cc(N4CCC(=O)CC4)cn4nccc34)c(F)c2)c(=O)n1-c1ccc(F)cc1` [Example 59, 1-(4-Fluoro-phenyl)-6-methyl-2-oxo-1,2-dihydro-pyridine-3-carboxylic acid {3-fluoro-4-[6-(4-oxo-piperidin-1-yl)-pyrazolo[1,5-a]pyridin-4-yloxy]-phenyl}-amide], the IC50 in test [1] was < 10 nM; in test [2] it was 10 to 100 nM.

For the compound `CC(C)n1cc(C(=O)Nc2ccc(Oc3cc(N4CCOCC4)cn4nccc34)c(F)c2)c(=O)n(-c2ccc(F)cc2)c1=O` [Example 62, 3-(4-Fluoro-phenyl)-1-isopropyl-2,4-dioxo-1,2,3,4-tetrahydro-pyrimidine-5-carboxylic acid[3-fluoro-4-(6-morpholin-4-yl-pyrazolo[1,5-a]pyridin-4-yloxy)-phenyl]-amide], the IC50 in test [1] and in test [2] was < 10 nM in each case.

Turning to `O=C(Nc1ccc(Oc2cc(N3CCC(O)CC3)cn3nccc23)c(F)c1)c1cccn(-c2ccc(F)cc2)c1=O` [Example 68, 1-(4-Fluoro-phenyl)-2-oxo-1,2-dihydro-pyridine-3-carboxylic acid{3-fluoro-4-[6-(4-hydroxy-piperidin-1-yl)-pyrazolo[1,5-a]pyridin-4-yloxy]-phenyl}-amide], the IC50 in test [1] and in test [2] was < 10 nM in each case.

With `Cn1cc(Nc2cc(Oc3ccc(NC(=O)c4cccn(-c5ccc(F)cc5)c4=O)cc3F)c3ccnn3c2)cn1` [Example 79, 1-(4-Fluoro-phenyl)-2-oxo-1,2-dihydro-pyridine-3-carboxylic acid {3-fluoro-4-[6-(1-methyl-1H-pyrazol-4-ylamino)-pyrazolo[1,5-a]pyridin-4-yloxy]-phenyl}-amide], the IC50 in test [1] and in test [2] was < 10 nM in each case.

For the compound `Cn1cnc(-c2cc(Oc3ccc(NC(=O)c4cccn(-c5ccc(F)cc5)c4=O)cc3F)c3ccnn3c2)c1` [Example 88, 1-(4-Fluoro-phenyl)-2-oxo-1,2-dihydro-pyridine-3-carboxylic acid {3-fluoro-4-[6-(1-methyl-1H-imidazol-4-yl)-pyrazolo[1,5-a]pyridin-4-yloxy]-phenyl}-amide], the IC50 in test [1] and in test [2] was < 10 nM in each case.

`Cc1ccc(C(=O)Nc2ccc(Oc3cc(-c4cn(C)cn4)cn4nccc34)c(F)c2)c(=O)n1-c1ccc(F)cc1` [Example 91, 1-(4-Fluoro-phenyl)-6-methyl-2-oxo-1,2-dihydro-pyridine-3-carboxylic acid {3-fluoro-4-[6-(1-methyl-1H-imidazol-4-yl)-pyrazolo[1,5-a]pyridin-4-yloxy]-phenyl}-amide]: the IC50 in test [1] and in test [2] was < 10 nM each time.

For `CCn1cc(C(=O)Nc2ccc(Oc3cc(-c4cn(C)cn4)cn4nccc34)c(F)c2)c(=O)n(-c2ccc(F)cc2)c1=O` [Example 93, 1-Ethyl-3-(4-fluoro-phenyl)-2,4-dioxo-1,2,3,4-tetrahydro-pyrimidine-5-carboxylic acid {3-fluoro-4-[6-(1-methyl-1H-imidazol-4-yl)-pyrazolo[1,5-a]pyridin-4-yloxy]-phenyl}-amide], the IC50 in test [1] and in test [2] was < 10 nM throughout.

As for `CC(C)n1cc(C(=O)Nc2ccc(Oc3cc(-c4cn(C)cn4)cn4nccc34)c(F)c2)c(=O)n(-c2ccc(F)cc2)c1=O` [Example 94, 3-(4-Fluoro-phenyl)-1-isopropyl-2,4-dioxo-1,2,3,4-tetrahydro-pyrimidine-5-carboxylic acid {3-fluoro-4-[6-(1-methyl-1H-imidazol-4-yl)-pyrazolo[1,5-a]pyridin-4-yloxy]-phenyl}-amide], the IC50 in test [1] and in test [2] was < 10 nM in each case.

As for `Cn1cnc(-c2cc(Oc3ccc(NC(=O)c4cn(C)c(=O)n(-c5ccc(F)cc5)c4=O)cc3F)c3ccnn3c2)c1` [Example 95, 3-(4-Fluoro-phenyl)-1-methyl-2,4-dioxo-1,2,3,4-tetrahydro-pyrimidine-5-carboxylic acid{3-fluoro-4-[6-(1-methyl-1H-imidazol-4-yl)-pyrazolo[1,5-a]pyridin-4-yloxy]-phenyl}-amide], the IC50 in test [1] and in test [2] was < 10 nM throughout.
